Measurements taken from patent US9212184B2, “6-thio-substituted imidazo[1,2-a]pyrazines as Mps-1 inhibitors” (BAYER INTELLECTUAL PROPERTY GMBH, priority 2010, dated 2015).
pIC50: −log10 of the molar value.

Target: human kinase Mps-1 (Homo sapiens (Human), UniProt P33981)
Experiment: Mps-1 kinase assay (TR-FRET)
Type: biochemical
Conditions: N-terminally GST-tagged human full length recombinant Mps-1; 10 μM ATP; 1 μM peptide substrate; 60 min at 22° C.; read-out: Mps1 IC50
Method: The human kinase Mps-1 phosphorylates a biotinylated substrate peptide. Detection of the phosphorylated product is achieved by time-resolved fluorescence resonance energy transfer (TR-FRET) from Europium-labelled anti-phospho-Serine/Threonine antibody as donor to streptavidin labelled with cross-linked allophycocyanin (SA-XLent) as acceptor. Compounds are tested for their inhibition of the kinase activity.
N-terminally GST-tagged human full length recombinant Mps-1 kinase (purchased from Invitrogen, Karslruhe, Germany, cat. no PV4071) was used. As substrate for the kinase reaction a biotinylated peptide of the amino-acid sequence PWDPDDADITEILG (C-terminus in amide form, purchased from Biosynthan GmbH, Berlin) was used.
For the assay 50 nL of a 100-fold concentrated solution of the test compound in DMSO was pipetted into a black low volume 384 well microtiter plate (Greiner Bio-One, Frickenhausen, Germany), 2 μl of a solution of Mps-1 in assay buffer [0.1 mM sodium-ortho-vanadate, 10 mM MgCl2, 2 mM DTT, 25 mM Hepes pH 7.7, 0.05% BSA, 0.001% Pluronic F-127] were added and the mixture was incubated for 15 min at 22° C. to allow pre-binding of the test compounds to Mps-1 before the start of the kinase reaction. […]
The resulting mixture was incubated 1 h at 22° C. to allow the binding of the phosphorylated peptide to the anti-phospho(Ser/Thr)-Europium-antibody. Subsequently the amount of phosphorylated substrate was evaluated by measurement of the resonance energy transfer from the Europium-labelled anti-phospho(Ser/Thr) antibody to the Streptavidin-XLent. Therefore, the fluorescence emissions at 620 nm and 665 nm after excitation at 350 nm was measured in a Viewlux TR-FRET reader (PerkinElmer LAS, Rodgau-Jügesheim, Germany). The “blank-corrected normalized ratio” (a Viewlux specific readout, similar to the traditional ratio of the emissions at 665 nm and at 622 nm, in which blank and Eu-donor crosstalk are subtracted from the 665 nm signal before the ratio is calculated) was taken as the measure for the amount of phosphorylated substrate. […]

Chain of human kinase Mps-1 (P33981 whole entry): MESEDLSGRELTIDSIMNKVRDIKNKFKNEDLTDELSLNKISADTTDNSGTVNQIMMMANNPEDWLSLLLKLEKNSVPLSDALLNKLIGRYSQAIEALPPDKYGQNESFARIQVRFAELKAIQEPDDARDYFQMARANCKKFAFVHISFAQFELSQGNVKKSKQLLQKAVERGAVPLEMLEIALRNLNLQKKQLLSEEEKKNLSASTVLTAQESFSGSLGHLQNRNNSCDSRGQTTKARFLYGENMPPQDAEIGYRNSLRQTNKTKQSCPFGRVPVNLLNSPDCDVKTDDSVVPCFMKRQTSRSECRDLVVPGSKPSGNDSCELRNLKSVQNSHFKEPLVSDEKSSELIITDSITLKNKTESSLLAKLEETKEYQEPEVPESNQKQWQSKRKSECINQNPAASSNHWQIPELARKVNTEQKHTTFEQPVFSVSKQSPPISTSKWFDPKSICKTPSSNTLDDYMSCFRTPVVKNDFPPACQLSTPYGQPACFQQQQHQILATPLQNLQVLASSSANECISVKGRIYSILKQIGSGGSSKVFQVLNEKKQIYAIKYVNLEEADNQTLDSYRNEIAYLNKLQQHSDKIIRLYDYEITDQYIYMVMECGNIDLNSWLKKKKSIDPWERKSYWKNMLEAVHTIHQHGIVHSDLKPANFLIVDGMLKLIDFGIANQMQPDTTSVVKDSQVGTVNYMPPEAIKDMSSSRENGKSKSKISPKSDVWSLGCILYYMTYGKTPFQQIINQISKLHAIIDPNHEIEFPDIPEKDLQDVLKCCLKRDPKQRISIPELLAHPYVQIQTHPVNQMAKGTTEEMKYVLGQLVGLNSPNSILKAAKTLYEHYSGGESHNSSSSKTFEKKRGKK

Row | pIC50 | SMILES
1 | 7.19 | CSc1cn2c(-c3ccc(C(=O)NC4CC4)c(C)c3)cnc2c(NCC(C)(C)O)n1 [Example 1-4, N-cyclopropyl-4-{8-[(2-hydroxy-2-methylpropyl)amino]-6-(methylsulfanyl)imidazo [1,2-a]pyrazin-3-yl}-2-methylbenzamide]
2 | 8.30 | CSc1cn2c(-c3ccc(C(=O)NC4CC4)cc3)cnc2c(NCC(C)C)n1 [Example 1-2, N-cyclopropyl-4-{8-[(2-methylpropyl)amino]-6-(methylsulfanyl)imidazo[1,2-a]pyrazin-3-yl}benzamide]
3 | 8.07 | CSc1cn2c(-c3ccc(C(=O)NC4CC4)c(C)c3)cnc2c(NCCC(F)(F)F)n1 [Example 1-3, N-cyclopropyl-2-methyl-4-{6-(methylsulfanyl)-8-[(3,3,3-trifluoropropyl)amino]imidazo[1,2-a]pyrazin-3-yl} benzamide]
